We go through six molecules from patent US20200207744A1, “DIMER COMPOUNDS, AND USE IN BINDING TOXIC REPEATS OF RNA” (EXPANSION THERAPEUTICS, INC., priority 2018, published 2020).

A value given as a limit tells only on which side of the number the result lay.

For this test, the system named is r(CUG)12-MBNL1 complex. Description: Small molecule inhibition of the r(CUG)12-MBNL1 complex measured by TR-FRET. In kind it is binding. As to conditions: biotinylated r(CUG)12 80 nM, MBNL1-His6 60 nM. Here is the method:
Example 28: Small Molecule Inhibition of the r(CUG)12-MBNL1 Complex Measured by Time Resolved Fluorescence Resonance Energy Transfer (TR-FRET)
The in vitro activity of small molecules were assessed by measuring the inhibition of the r(CUG)12-MBNL1 complex using a TR-FRET assay previously reported by Chen et al Analytical and Bioanalytical Chemistry 2012, 402, 1889. Biotinylated r(CUG)12 was folded at 60° C. in 1× Folding Buffer (20 mM HEPES, pH 7.5, 100 mM KCl, and 10 mM NaCl) and slowly cooled to room temperature. The buffer was then adjusted to 1× TR-FRET Buffer (1× Folding Buffer supplemented with 2 mM MgCl2, 2 mM CaCl2, 5 mM DTT, 0.1% BSA, 0.05% Tween-20) and MBNL1-His6 was added. The final concentrations of RNA and MBNL1-His6 were 80 nM and 60 nM, respectively. Then dilutions of the small molecule were made in 1× TR-FRET buffer. The samples were equilibrated at room temperature for 15 min, after which 1 μL of antibody solution (1:1 mixture of 8.8 ng/μL Anti-His6-Tb and 800 nM streptavidin XL-665) was added. Samples were incubated at room temperature for 1 h, and then TR-FRET was measured using a Molecular Devices SpectraMax M5 plate reader using an excitation wavelength of 345 nm and a 420 nm cutoff. Controls for maximum TR-FRET (100% complex formation) contained 8 μL of 1× TR-FRET Buffer with RNA and protein and 1 μL water. Controls for minimum TR-FRET (no complex formation) contained 8 μL of 1× Assay Buffer, 1 μL water, and no RNA or protein.
To calculate the percent inhibition of complex formation, the ratio of fluorescence intensity at 545 nm and 665 nm in the presence of compound was compared to the ratio in the absence of small molecule (100% r(CUG)12-MBNL1 complex formation) and in the absence of RNA and protein (no complex formation). The resulting curves were fit to the following equation to determine IC50 values: […]
where y is ratio of fluorescence intensities at 545 nm and 665 nm (F545/F665), x is the concentration of small molecule, B is F545/F665 value at max FRET effect (solution has RNA and protein but no small molecule added); A is F545/F665 value at min FRET effect (solution has antibodies but no RNA, protein, or small molecule); and the IC50 is the concentration of small molecule where half of the protein is displaced by small molecule.
A general note: In TR-FRET formats the signal depends on donor and acceptor labels being close together.
By IC50 is commonly meant the point on the concentration scale where inhibition reaches its midpoint. Read a low IC50 as greater potency in that assay. For the molecule “3,3′-((2,2′-((ethane-1,2-diylbis(oxy))bis(2,1-phenylene))bis(1H-benzo[d]imidazole-6,2-diyl))bis(oxy))bis(N,N-dimethylpropan-1-amine) [Ex 12]”, the IC50 was above 200 µM.
“3,3′-((2,2′-(((oxybis(ethane-2,1-diyl))bis(oxy))bis(2,1-phenylene))bis(1H-benzo[d]imidazole-6,2-diyl))bis(oxy))bis(N,N-dimethylpropan-1-amine) [Ex 13]”: the IC50 is 188 µM.
To `CN(C)CCCOc1ccc2nc(-c3ccccc3OCCOCCOCCOc3ccccc3-c3nc4ccc(O)cc4[nH]3)[nH]c2c1` [Ex 14b, 2-(2-(2-(2-(2-(2-(6-(3-(dimethylamino)propoxy)-1H-benzo[d]imidazole-2-yl)phenoxy)ethoxy)ethoxy)ethoxy)phenyl)-1H-benzo[d]imidazol-6-ol] belongs above 200 µM; to “3,3′-((2,2′-(2-(3-((3-(2,5-bis(6-(3-(dimethylamino)propoxy)-1H-benzo[d]imidazol-2-yl)phenoxy)propyl)(methyl)amino)propoxy)-1,4-phenylene)bis(1H-benzo[d]imidazole-6,2-diyl))bis(oxy))bis(N,N-dimethylpropan-1-amine) [Ex 18]”, 0.72 µM; to `CN(C)CCCOc1ccc2nc(-c3ccccc3OCCOCCOCCOc3ccccc3-c3nc4ccc(OCCCN(C)C)cc4[nH]3)[nH]c2c1` [Ex 14a, 3,3′-((2,2′-((((ethane-1,2-diylbis(oxy))bis(ethane-2,1-diyl))bis(oxy))bis(2,1-phenylene))bis(1H-benzo[d]imidazole-6,2-diyl))bis(oxy))bis(N,N-dimethylpropan-1-amine)], 166 µM.
Regarding `CN(C)CCCOc1ccc2nc(-c3ccc(-c4nc5ccc(OCCCN(C)C)cc5[nH]4)c(OCCCCCCCCCCCCOc4cc(-c5nc6ccc(OCCCN(C)C)cc6[nH]5)ccc4-c4nc5ccc(OCCCN(C)C)cc5[nH]4)c3)[nH]c2c1` [Ex 20, 3,3′,3″,3′″-((((dodecane-1,12-diylbis(oxy))bis(benzene-2,1,4-triyl))tetrakis(1H-benzo[d]imidazole-2,5-diyl))tetrakis(oxy))tetrakis(N,N-dimethylpropan-1-amine)], the IC50 amounted to 2.8 µM. This IC50 is about 59-fold lower than that of the molecule before.
